{
  "source": "patent US20090054333A1",
  "about": "“Peptide inhibitors of cyclin-dependent kinase activity and uses thereof” (priority 2006, published 2009)",
  "key": {"NIH/3T3 cells": {"test_system": "NIH/3T3 cells", "test": "cell cycle analysis by flow cytometry (FACS)", "type": "cell-based", "settings": "NIH/3T3 transiently transfected, EGFP-gated; 48 h after transfection; propidium iodide", "protocol": "A marker plasmid expressing enhanced green fluorescent protein (EGFP)-spectrin was included in the transfection mixture. Control cells, which were not transfected with EGFP-spectrin, were used as the EGFP-negative population. Cells were harvested and examined for their cell cycle states by fluorescence-activated cell sorter (FACS) analysis. After harvest, cells were fixed by adding ice-cold 70% ethanol while vortexing. Fixed cells were stored at 4° C. for at least 30 min and then washed once with PBS. Cells were then stained with 10 μg/ml propidium iodide (Roche Applied Science, Indianapolis, Ind.), 250 μg/ml RNase (Sigma, St. Louis, Mo.) in PBS and incubated at 37° C. for 30 min in the dark. Transfected cells were gated according to their EGFP expression and the DNA content was determined by flow cytometry analysis. The percentage of cells in the different phases of the cell cycle was measured with a FACS Calibur instrument (Becton-Dickinson, San Jose, Calif.) and the data obtained were analyzed by WinMDI 2.8 software. […]\nIn FIG. 5a, three plasmids were co-expressed with EGFP-spectrin, in a 1:10 ratio, in transient transfection assays. Cells were harvested 48 hours after transfection, stained with propidium iodide and analyzed by flow cytometric gating for both GFP and propidium iodide. […]"}, "endogenous cdk2": {"test_system": "endogenous cdk2", "test": "endogenous cdk2 kinase activity after transient transfection of NIH/3T3 cells", "type": "cell-based", "settings": "NIH/3T3 transfected with pEF6/V5 constructs; 48 h after transfection", "protocol": "Kinase assays: Cell lysates from NIH/3T3 were prepared by resuspending pelleted cells in 500 μl of lysis buffer (50 mM Tris, 5 mM EDTA, 250 mM NaCl, 50 mM NaF, 0.1% Triton, 0.1 mM Na3VO4, plus protease inhibitors). An equal amount of protein for each fraction (100 μg) was immunoprecipitated with a polyclonal anti-cdk2 antibody (De Luca et al., 1997, J Biol Chem, 272, 20971-4). The complexes were pulled down with protein A-Sepharose and washed three times with lysis buffer and twice with lysis buffer containing 400 mM NaCl. The complexes were equilibrated in kinase assay buffer (20 mM HEPES pH 7.4, 10 mM MgAc, […], 1 mM DTT). In order to detect the in vitro inhibition of cdk2 activity, each sample was incubated with an equal amount (0.1 μg) of each pGEX-2T fusion protein, in a final volume of 20 μl of kinase buffer, using 5 μCi/sample of γ-ATP (Amersham Biosciences, Piscataway, N.J.) and 2 μg of Histone H1 for 30 minutes at 30° C. Kinase assays were repeated at least three times, giving an inter assay standard deviation within 10% after normalization for protein amount. […]\nIn FIG. 3a, asynchronously growing NIH/3T3 cells were transfected with pEF6/V5 vector, pEF6/V5-Spa310 or pEF6/V5-spacer. […] Phosphorylation of histone H1 was monitored by autoradiography. […]"}},
  "data": [
    {"molecule": "Spa310: pRb2/p130 amino acids 641-679 (39 amino acids long), SEQ ID NO:3; LTPRRVTEVRADTGGLGRSITSPTTLYDRYSSPPASTTR (listed as Homo sapiens)", "values": [
      {"measurement": "effect on cell cycle distribution", "setting": "NIH/3T3 cells", "result": "induced a G0/G1 arrest of the cell cycle"},
      {"measurement": "inhibition of cdk2-dependent histone phosphorylation (endogenous cdk2)", "setting": "endogenous cdk2", "result": "significant inhibition"}
    ]},
    {"molecule": "Spacer: full-length pRb2/p130 spacer domain, amino acids 616-828 (SEQ ID NO:20) (protein, listed as Homo sapiens) VPTCEEVMPPQNLERADEICIAGSPLTPRRVTEVRADTGGLGRSITSPTTLYDRYSSPPASTTRRRLFVENDSPSDGGTPGRMPPQPLVNAVPVQNVSGETVSVTPVPGQTLVTMATATVTANNGQTVTIPVQGIANENGGITFFPVQVNVGGQAQAVTGSIQPLSAQALAGSLSSQQVTGTTLQVPGQVAIQQISPGGQQQKQGQSVTSSSN", "values": [
      {"measurement": "effect on cell cycle distribution", "setting": "NIH/3T3 cells", "result": "induced a G0/G1 arrest of the cell cycle"},
      {"measurement": "inhibition of cdk2-dependent histone phosphorylation (endogenous cdk2)", "setting": "endogenous cdk2", "result": "significant inhibition"}
    ]}
  ]
}
